Blank lines part the entries; values can stand above or below the molecule they belong to.
Key:
[1] = molecular target: T1, Ephrin type-A receptor 8 (Homo sapiens) (UniProt P29322); test: Selectivity interaction (KinomeScan (DiscoverX)) EUB0000666a EPHA8; conditions: at 10 µM
T1 sequence (whole entry): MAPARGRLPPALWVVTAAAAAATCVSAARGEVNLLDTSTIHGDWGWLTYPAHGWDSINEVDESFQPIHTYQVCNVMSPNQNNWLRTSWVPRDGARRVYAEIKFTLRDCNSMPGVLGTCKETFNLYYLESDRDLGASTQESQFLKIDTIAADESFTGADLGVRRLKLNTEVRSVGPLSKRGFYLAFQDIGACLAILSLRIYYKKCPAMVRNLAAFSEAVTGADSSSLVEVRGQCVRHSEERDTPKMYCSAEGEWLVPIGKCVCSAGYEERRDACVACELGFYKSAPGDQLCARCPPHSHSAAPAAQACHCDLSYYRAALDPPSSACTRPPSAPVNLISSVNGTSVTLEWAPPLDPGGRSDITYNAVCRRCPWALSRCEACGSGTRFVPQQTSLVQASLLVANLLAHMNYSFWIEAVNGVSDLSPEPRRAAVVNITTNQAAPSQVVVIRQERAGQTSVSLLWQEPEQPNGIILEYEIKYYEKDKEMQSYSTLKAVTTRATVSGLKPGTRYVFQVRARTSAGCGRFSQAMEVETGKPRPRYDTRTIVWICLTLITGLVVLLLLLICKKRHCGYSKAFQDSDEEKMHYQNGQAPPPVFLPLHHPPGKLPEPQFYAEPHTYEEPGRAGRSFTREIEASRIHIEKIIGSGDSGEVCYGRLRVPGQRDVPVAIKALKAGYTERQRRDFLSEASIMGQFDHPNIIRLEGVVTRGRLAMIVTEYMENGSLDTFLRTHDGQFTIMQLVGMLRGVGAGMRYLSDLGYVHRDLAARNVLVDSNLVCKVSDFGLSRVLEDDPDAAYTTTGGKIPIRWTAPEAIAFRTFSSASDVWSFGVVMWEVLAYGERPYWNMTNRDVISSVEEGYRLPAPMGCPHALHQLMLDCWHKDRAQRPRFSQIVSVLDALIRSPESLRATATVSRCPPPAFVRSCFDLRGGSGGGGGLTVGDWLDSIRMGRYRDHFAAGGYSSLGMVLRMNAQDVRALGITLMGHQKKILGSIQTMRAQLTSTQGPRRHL

[2] = molecular target: Serine/threonine-protein kinase Chk2 (Homo sapiens) (UniProt O96017); test: Selectivity interaction (KinomeScan (DiscoverX)) EUB0000607a CHEK2; conditions: at 10 µM
Chain of Serine/threonine-protein kinase Chk2 (Homo sapiens) (O96017 whole entry): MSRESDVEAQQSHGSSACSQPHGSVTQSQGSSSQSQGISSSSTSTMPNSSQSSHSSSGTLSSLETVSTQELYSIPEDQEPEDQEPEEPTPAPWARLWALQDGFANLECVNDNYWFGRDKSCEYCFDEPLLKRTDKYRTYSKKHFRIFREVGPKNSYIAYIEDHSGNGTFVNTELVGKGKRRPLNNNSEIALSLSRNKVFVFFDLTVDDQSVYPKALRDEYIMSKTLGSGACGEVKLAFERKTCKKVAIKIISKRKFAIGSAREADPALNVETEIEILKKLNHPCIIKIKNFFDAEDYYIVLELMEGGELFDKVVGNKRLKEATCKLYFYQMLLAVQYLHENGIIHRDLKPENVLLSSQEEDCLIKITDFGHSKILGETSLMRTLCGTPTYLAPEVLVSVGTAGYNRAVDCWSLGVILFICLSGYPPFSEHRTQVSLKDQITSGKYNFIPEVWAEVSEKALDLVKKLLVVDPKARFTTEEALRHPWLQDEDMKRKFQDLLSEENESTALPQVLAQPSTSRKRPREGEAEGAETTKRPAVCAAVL

[3] = molecular target: T2, Mitogen-activated protein kinase 13 (Homo sapiens) (UniProt O15264); test: Selectivity interaction (Kinase panel (Invitrogen)) EUB0000639a MAPK13; conditions: at 200 nM
T2 sequence (whole entry): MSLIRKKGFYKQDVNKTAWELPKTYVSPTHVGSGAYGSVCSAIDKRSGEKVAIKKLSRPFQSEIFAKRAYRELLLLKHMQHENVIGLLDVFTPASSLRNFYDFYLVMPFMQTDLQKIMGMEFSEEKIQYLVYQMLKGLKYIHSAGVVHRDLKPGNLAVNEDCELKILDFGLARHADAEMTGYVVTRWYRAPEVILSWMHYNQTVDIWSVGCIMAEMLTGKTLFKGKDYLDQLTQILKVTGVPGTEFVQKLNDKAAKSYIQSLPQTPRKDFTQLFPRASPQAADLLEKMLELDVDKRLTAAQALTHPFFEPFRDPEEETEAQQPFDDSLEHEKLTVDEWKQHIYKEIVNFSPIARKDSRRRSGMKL

[4] = molecular target: Eukaryotic translation initiation factor 2-alpha kinase 1 (Homo sapiens) (UniProt Q9BQI3); test: Selectivity interaction (ProQinase) EUB0000171b EIF2AK1
Chain of Eukaryotic translation initiation factor 2-alpha kinase 1 (Homo sapiens) (Q9BQI3 whole entry): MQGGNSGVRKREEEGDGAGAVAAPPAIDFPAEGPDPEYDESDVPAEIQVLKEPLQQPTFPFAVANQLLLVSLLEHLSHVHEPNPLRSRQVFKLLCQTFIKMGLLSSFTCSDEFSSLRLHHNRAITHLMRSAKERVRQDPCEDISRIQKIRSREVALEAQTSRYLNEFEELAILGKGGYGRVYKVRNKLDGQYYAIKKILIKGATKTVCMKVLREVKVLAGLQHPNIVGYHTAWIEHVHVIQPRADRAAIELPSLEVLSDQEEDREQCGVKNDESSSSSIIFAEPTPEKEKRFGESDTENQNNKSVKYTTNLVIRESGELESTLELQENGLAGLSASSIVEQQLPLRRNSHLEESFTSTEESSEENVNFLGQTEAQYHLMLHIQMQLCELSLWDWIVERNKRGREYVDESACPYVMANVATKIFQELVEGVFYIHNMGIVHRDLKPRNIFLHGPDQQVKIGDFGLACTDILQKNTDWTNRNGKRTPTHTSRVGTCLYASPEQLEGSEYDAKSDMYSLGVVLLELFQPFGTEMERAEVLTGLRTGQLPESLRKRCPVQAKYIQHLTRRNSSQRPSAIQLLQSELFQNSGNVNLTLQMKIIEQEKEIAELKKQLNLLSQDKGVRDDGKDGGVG

[5] = molecular target: T3, Interleukin-1 receptor-associated kinase 4 (Homo sapiens) (UniProt Q9NWZ3); test: Selectivity interaction (KinomeScan (DiscoverX)) EUB0001079a IRAK4; conditions: at 1 µM
T3 sequence (whole entry): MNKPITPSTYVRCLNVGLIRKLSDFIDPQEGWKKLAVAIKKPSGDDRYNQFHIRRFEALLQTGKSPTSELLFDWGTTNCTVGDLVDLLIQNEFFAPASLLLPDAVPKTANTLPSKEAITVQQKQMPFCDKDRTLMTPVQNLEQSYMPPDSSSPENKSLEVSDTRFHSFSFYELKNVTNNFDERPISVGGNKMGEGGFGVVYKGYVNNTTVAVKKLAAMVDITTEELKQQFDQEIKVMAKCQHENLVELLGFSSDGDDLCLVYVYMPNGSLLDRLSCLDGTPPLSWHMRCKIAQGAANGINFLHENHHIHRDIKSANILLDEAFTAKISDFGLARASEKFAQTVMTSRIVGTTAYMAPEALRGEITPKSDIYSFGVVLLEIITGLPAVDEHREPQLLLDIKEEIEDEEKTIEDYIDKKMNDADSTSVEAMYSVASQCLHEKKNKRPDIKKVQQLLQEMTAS

[6] = molecular target: Casein kinase I isoform alpha (Homo sapiens, UniProt P48729); test: Selectivity interaction (KinomeScan (DiscoverX)) EUB0000229b CSNK1A1; conditions: at 10 µM
Chain of Casein kinase I isoform alpha (P48729 2-337 limits assumed): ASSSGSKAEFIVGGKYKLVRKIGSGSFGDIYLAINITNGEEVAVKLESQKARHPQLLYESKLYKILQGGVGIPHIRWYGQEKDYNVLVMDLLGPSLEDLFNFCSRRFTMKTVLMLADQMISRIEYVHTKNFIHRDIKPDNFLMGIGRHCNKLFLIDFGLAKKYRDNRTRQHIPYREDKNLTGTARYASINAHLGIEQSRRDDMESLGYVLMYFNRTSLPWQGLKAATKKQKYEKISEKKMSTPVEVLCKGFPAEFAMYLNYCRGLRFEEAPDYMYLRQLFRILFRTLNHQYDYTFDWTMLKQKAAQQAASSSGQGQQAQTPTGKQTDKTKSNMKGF

[7] = molecular target: Ephrin type-A receptor 2 (Homo sapiens) (UniProt P29317); test: Selectivity interaction (KinomeScan (DiscoverX)) EUB0001619a EPHA2; conditions: at 1 µM
Chain of Ephrin type-A receptor 2 (Homo sapiens) (P29317 whole entry): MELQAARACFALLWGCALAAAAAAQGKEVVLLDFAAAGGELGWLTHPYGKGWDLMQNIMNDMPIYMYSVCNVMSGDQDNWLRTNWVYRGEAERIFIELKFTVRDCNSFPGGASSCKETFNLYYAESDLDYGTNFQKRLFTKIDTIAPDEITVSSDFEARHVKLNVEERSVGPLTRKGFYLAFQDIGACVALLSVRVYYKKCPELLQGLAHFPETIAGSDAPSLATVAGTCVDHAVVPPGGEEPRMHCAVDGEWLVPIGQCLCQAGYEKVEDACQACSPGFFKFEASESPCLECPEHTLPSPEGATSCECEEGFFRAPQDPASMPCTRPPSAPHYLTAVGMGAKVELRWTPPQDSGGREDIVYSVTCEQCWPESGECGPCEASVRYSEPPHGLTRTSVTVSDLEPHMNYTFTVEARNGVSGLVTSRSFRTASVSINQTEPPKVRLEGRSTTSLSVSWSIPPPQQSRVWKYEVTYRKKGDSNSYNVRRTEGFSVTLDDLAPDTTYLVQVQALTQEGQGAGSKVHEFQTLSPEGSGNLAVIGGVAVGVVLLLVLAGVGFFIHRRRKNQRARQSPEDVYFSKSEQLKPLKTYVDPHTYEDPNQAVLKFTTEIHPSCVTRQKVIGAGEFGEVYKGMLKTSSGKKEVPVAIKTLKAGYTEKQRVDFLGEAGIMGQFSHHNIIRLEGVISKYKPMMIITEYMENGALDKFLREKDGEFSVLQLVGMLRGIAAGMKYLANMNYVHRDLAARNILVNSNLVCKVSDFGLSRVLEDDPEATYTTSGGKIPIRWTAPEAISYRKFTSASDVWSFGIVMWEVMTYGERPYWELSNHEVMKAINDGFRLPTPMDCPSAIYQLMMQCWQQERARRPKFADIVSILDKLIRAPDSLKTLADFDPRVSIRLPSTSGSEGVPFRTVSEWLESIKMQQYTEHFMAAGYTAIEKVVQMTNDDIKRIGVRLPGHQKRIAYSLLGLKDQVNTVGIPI

[8] = molecular target: T4, MAP/microtubule affinity-regulating kinase 4 (Homo sapiens) (UniProt Q96L34); test: Selectivity interaction (KinomeScan (DiscoverX)) EUB0001619a MARK4; conditions: at 1 µM
T4 sequence (whole entry): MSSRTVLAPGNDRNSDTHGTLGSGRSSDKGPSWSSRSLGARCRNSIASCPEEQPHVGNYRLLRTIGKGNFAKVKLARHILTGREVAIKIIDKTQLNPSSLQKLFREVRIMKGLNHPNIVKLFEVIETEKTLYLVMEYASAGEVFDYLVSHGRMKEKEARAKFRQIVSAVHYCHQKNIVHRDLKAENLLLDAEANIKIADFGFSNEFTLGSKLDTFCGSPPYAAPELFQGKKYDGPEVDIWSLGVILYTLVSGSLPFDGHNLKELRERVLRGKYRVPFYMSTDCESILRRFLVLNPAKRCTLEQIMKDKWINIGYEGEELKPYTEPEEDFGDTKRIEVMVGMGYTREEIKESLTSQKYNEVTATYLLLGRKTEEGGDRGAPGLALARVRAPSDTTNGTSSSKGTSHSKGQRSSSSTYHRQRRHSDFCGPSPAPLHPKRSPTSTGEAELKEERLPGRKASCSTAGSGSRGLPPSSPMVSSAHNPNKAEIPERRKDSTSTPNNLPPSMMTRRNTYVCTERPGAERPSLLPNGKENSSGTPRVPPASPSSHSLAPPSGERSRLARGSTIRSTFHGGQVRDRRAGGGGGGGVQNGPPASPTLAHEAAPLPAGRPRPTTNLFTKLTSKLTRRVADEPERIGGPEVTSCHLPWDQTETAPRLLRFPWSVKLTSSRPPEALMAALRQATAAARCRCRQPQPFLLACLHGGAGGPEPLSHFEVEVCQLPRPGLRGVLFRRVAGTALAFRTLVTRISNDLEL

Structure (SMILES): O=C(NOC[C@H](O)CO)c1ccc(F)c(F)c1Nc1ccc(I)cc1F
% of control [1]: 94%

Structure (SMILES): CNC(=O)Nc1ccc(-c2nc(N3CC4CCC(C3)O4)c3cnn(C4CCC5(CC4)OCCO5)c3n2)cc1
% of control [2]: 84%

% of inhibition [3]: 6.06%
Structure (SMILES): CC[C@@H]1[C@H](F)C(=O)N[C@@H]1COc1nccc2cc(C(N)=O)c(OC)cc12 [ZIMLOVISERTIB]

% of control ([4]; at 1 µM): 85% | % of control ([4]; at 5 µM): 66%
Structure (SMILES): C=CC(=O)Nc1cccc(C(=O)Nc2ccc(Nc3cc(-c4[nH]c(SC)nc4C)ccn3)cc2)c1

Structure (SMILES): Nc1cnc(N2CCc3cc(S(=O)(=O)Nc4c(F)cc(Cl)cc4F)cc(N4CCCC4=O)c32)nc1 [TP-020n]
% of control [5]: 100%

Structure (SMILES): COc1cc(N(C)c2ccnc3ccc(C(F)(F)F)cc23)cc(OC)c1OC
% binding [6]: 90%

Structure (SMILES): N#Cc1cccc(-c2c[nH]c3ncnc(N4CCOCC4)c23)c1
% of control [7]: 100% | % of control [8]: 82%
